Source: ChEMBL document CHEMBL5338752, “Carbamate JNK3 Inhibitors Show Promise as Effective Treatments for Alzheimer's Disease: In Vivo Studies on Mouse Models” (J Med Chem, 2023)
Activity calls are given as the source filed them. The rule behind the calls is not given here.

What was measured:
Mus musculus [1] = assay: Anti-alzheimer activity against triple transgenic mouse alzheimer disease model assessed as path length at 60 mg/kg, po measured upto 5 days by Morris water maze test (reference value: 608.85+/-39.27 cm); assay type: functional; conditions: time <= 5 day
Mus musculus [2] = assay: Anti-alzheimer activity against triple transgenic mouse alzheimer disease model assessed as latency time at 60 mg/kg, po administered daily for 2.2 months and measured after 122 to 123 days by passive avoidance test (reference value: 31.3+/-6.9 sec); assay type: functional; conditions: time 122-123 day
Neuron [3] = assay: Neuroprotective activity against rat neuron cells assessed as inhibition of Abeta(1-42)-induced cytotoxicity by measuring increase in cell viability at 20 uM incubated for 48 hrs by MTT assay relative to control; assay type: functional
Mus musculus [4] = assay: Anti-alzheimer activity against triple transgenic mouse alzheimer disease model assessed as time spent in target zone at 60 mg/kg, po administered daily for 2.2 months and measured after 137 days by Morris water maze test (reference value: 4.48+/-1.63 sec); assay type: functional; conditions: time 137 day
Mus musculus [5] = assay: Anti-alzheimer activity against triple transgenic mouse alzheimer disease model assessed as reduction in tau phosphorylation level at T181 residue in hippocampal tissue at 30 to 60 mg/kg by Western blot analysis; assay type: functional, organism-based; conditions: dose 30-60 mg/kg
Neuron [6] = assay: Neuroprotective activity against rat neuron cells assessed as inhibition of Abeta(1-42)-induced cytotoxicity by measuring increase in cell viability at 20 uM incubated for 24 hrs by MTT assay relative to control; assay type: functional
[7] = biological target: Mitogen-activated protein kinase 10 (Homo sapiens, UniProt P53779); assay: Inhibition of JNK3 (unknown origin) using ATF2 as substrate incubated for 40 mins in presence of [gamma33P]ATP by scintillation counting analysis
Sequence of Mitogen-activated protein kinase 10 (P53779 whole entry): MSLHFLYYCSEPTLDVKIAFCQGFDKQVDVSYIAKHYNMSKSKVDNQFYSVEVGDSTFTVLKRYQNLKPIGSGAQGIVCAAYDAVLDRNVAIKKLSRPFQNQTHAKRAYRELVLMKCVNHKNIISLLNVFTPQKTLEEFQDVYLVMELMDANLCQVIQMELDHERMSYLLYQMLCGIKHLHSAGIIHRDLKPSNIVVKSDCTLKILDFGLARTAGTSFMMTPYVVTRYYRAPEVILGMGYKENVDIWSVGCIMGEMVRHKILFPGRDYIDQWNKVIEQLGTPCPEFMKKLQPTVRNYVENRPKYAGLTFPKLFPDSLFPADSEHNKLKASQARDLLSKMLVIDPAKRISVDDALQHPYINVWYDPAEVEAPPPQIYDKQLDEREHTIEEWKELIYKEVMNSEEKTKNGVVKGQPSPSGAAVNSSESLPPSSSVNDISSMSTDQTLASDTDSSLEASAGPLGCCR

Mus musculus [8] = assay: Anti-alzheimer activity against triple transgenic mouse alzheimer disease model assessed as escape latency time at 30 mg/kg, po measured upto 5 days by Morris water maze test (reference value: 58.62+/-1.15 sec); assay type: functional; conditions: time <= 5 day
Mus musculus [9] = assay: Anti-alzheimer activity against triple transgenic mouse alzheimer disease model assessed as reduction in tau phosphorylation level at S202 residue in hippocampal tissue at 30 to 60 mg/kg by Western blot analysis; assay type: functional, organism-based; conditions: dose 30-60 mg/kg
Mus musculus [10] = assay: Anti-alzheimer activity against APP/PS1 dE9 double transgenic mouse model assessed as spontaneous alteration at 30 mg/kg, po administered daily for 2 months and measured after 57 days by Y-maze test (reference value: 40.75+/-2.25%); assay type: functional; conditions: time 57 day
Mus musculus [11] = assay: Anti-alzheimer activity against triple transgenic mouse alzheimer disease model assessed as time spent in platform quadrant at 30 mg/kg, po administered daily for 2.2 months and measured after 137 days by Morris water maze test (reference value: 12.26+/-2.34 sec); assay type: functional; conditions: time 137 day
[12] = Effective permeability of compound by […] method; assay type: ADME; conditions: read-out: Peff
Mus musculus [13] = assay: Anti-alzheimer activity against APP/PS1 dE9 double transgenic mouse model assessed as time spent in target zone at 30 mg/kg, po administered daily for 2 months and measured after 74 days by Morris water maze test (reference value: 6.76+/-3.20 sec); assay type: functional; conditions: time 74 day

CNC(=O)Oc1cc(F)c2nc(-c3ccc4ccccc4c3)n(-c3ccnc(N[C@H]4CCCN(C(=O)C5CC5)C4)n3)c2c1
Activity (Mus musculus [1]): 372.7 cm
Time (Mus musculus [2]): 64.4 s
Activity (Neuron [3]): 28.4%
Time (Mus musculus [4]): 16.28 s
Activity (Mus musculus [5]): Active
Activity (Neuron [6]): 47.5%
IC50 [7]: 21 nM
Time (Mus musculus [8]): 26.61 s
Activity (Mus musculus [9]): Active
Activity (Mus musculus [10]): 50.6%
Time (Mus musculus [11]): 23.4 s
Papp [12]: 55.8 ×10⁻⁶ cm/s
Time (Mus musculus [13]): 11.4 s
